Assay results: ChEMBL document CHEMBL1781959, “Synthesis and in vitro antitumor activity of substituted quinazoline and quinoxaline derivatives: search for anticancer agent” (Eur J Med Chem, 2011)

How the values were obtained:
Type in all cases: functional
[1] = system: SNB-19; experiment: Anticancer activity against human SNB19 cells assessed as cell growth promotion at 10^-5 M after 48 hrs by SRB assay relative to control
[2] = system: SNB-75; experiment: Anticancer activity against human SNB75 cells assessed as cell growth promotion at 10^-5 M after 48 hrs by SRB assay relative to control
[3] = system: U-251; experiment: Anticancer activity against human U251 cells assessed as cell growth promotion at 10^-5 M after 48 hrs by SRB assay relative to control
[4] = system: CCRF-CEM; experiment: Anticancer activity against human CCRF-CEM cells assessed as cell growth promotion at 10^-5 M after 48 hrs by SRB assay relative to control
[5] = system: M14; experiment: Anticancer activity against human M14 cells assessed as cell growth promotion at 10^-5 M after 48 hrs by SRB assay relative to control
[6] = system: MDA-MB-435; experiment: Anticancer activity against human MDA-MB-435 cells assessed as cell growth promotion at 10^-5 M after 48 hrs by SRB assay relative to control
[7] = system: SK-MEL-2; experiment: Anticancer activity against human SK-MEL-2 cells assessed as cell growth promotion at 10^-5 M after 48 hrs by SRB assay relative to control
[8] = system: UACC-257; experiment: Anticancer activity against human UACC257 cells assessed as cell growth promotion at 10^-5 M after 48 hrs by SRB assay relative to control
[9] = system: OVCAR-4; experiment: Anticancer activity against human OVCAR4 cells assessed as cell growth promotion at 10^-5 M after 48 hrs by SRB assay relative to control
[10] = system: ACHN; experiment: Anticancer activity against human ACHN cells assessed as cell growth promotion at 10^-5 M after 48 hrs by SRB assay relative to control
[11] = system: CAKI-1; experiment: Anticancer activity against human Caki1 cells assessed as cell growth promotion at 10^-5 M after 48 hrs by SRB assay relative to control
[12] = system: RXF 393; experiment: Anticancer activity against human RXF393 cells assessed as cell growth promotion at 10^-5 M after 48 hrs by SRB assay relative to control
[13] = system: SN12C; experiment: Anticancer activity against human SN12C cells assessed as cell growth promotion at 10^-5 M after 48 hrs by SRB assay relative to control
[14] = system: UO-31; experiment: Anticancer activity against human UO31 cells assessed as cell growth promotion at 10^-5 M after 48 hrs by SRB assay relative to control
[15] = system: BT-549; experiment: Anticancer activity against human BT549 cells assessed as cell growth promotion at 10^-5 M after 48 hrs by SRB assay relative to control
[16] = system: SR; experiment: Anticancer activity against human SR cells assessed as cell growth promotion at 10^-5 M after 48 hrs by SRB assay relative to control
[17] = system: NCI-H226; experiment: Anticancer activity against human NCI-H226 cells assessed as cell growth promotion at 10^-5 M after 48 hrs by SRB assay relative to control
[18] = system: HCT-15; experiment: Anticancer activity against human HCT15 cells assessed as cell growth promotion at 10^-5 M after 48 hrs by SRB assay relative to control
[19] = system: HT-29; experiment: Anticancer activity against human HT-29 cells assessed as cell growth promotion at 10^-5 M after 48 hrs by SRB assay relative to control
[20] = system: NCI-H522; experiment: Anticancer activity against human NCI-H522 cells assessed as cell growth promotion at 10^-5 M after 48 hrs by SRB assay relative to control
[21] = Anticancer activity against human […] cells assessed as cell growth promotion at 10^-5 M after 48 hrs by SRB assay relative to control

SMILES | Activity [1] [%] | Activity [2] [%] | Activity [3] [%] | Activity [4] [%] | Activity [5] [%] | Activity [6] [%] | Activity [7] [%] | Activity [8] [%] | Activity [9] [%] | Activity [10] [%] | Activity [11] [%] | Activity [12] [%] | Activity [13] [%] | Activity [14] [%] | Activity [15] [%] | Activity [16] [%] | Activity [17] [%] | Activity [18] [%] | Activity [19] [%] | Activity [21] [%] | other results
O=c1c2ccccc2nc(-c2ccco2)n1O | 101.58 | 86.97 | 110.85 | 98.16 | 89.53 | 124.51 | 103.59 | 112.27 | 114.55 | 98.81 | 102.81 | 117.15 | 98.6 | 68.92 | 103.7 | 94.7 | 97.88 | 108.36 | 103.19 |  | 
O=C(O)c1ccc(-n2c(-c3ccco3)nc3ccccc3c2=O)cc1 | 91.35 | 89.2 | 102.8 | 87.86 | 103.37 | 112.17 | 93.19 | 107.43 | 100.6 | 101.24 | 102.24 | 109.93 | 99.34 | 68.61 | 100.59 | 92.85 | 78.42 | 93.69 | 92 |  | Activity [20]: 109.67%
NS(=O)(=O)c1ccc(NC(=O)c2ccccc2NC(=O)c2ccco2)cc1 | 110.7 | 87.71 | 99.55 | 98.87 | 113.1 | 107.2 | 115.3 | 100.1 | 98 | 101 | 100 | 113 | 105 | 104 | 111 | 101.4 | 114.6 | 105.5 | 99.28 | 117.5 | Activity [20]: 90.78%
N#Cc1ccc(/C=C/c2ccc(NC(=O)c3ccccc3NC(=O)c3ccco3)cc2)cc1 | 111 | 80 | 100 | 96.43 | 112 | 108 | 116 | 103 | 100 | 104 | 83.31 | 114 | 104 | 84.8 | 109 | 109 | 107 | 104 |  | 108 | Activity [20]: 106%
O=C(Nc1ccccc1C(=O)Nc1ccc(/C=C/c2ccc(Cl)cc2)cc1)c1ccco1 | 107 | 71.39 | 107 | 103 | 107 | 101 | 136 | 112 | 101 | 100 | 89.89 | 117 | 103 | 83.88 | 127 | 109 | 105 | 109 | 103 | 120 | Activity [20]: 114%
COc1cc(/C=C/c2ccc(NC(=O)c3ccccc3NC(=O)c3ccccc3)cc2)ccc1O | 104 | 85.88 | 103 | 79.93 | 92.83 | 107 | 104 | 104 |  | 97.71 | 95.9 | 95.14 | 96.62 | 68.52 | 95.53 | 106.41 | 95.46 | 98.82 | 121 | 79.36 | Activity [20]: 99.45%
O=C(Nc1ccccc1C(=O)Nc1ccc(/C=C/C=C/c2ccccc2)cc1)c1ccccc1 | 90.58 | 82.74 | 95.87 | 53.89 | 83.75 | 90.52 | 96.46 | 103 |  | 87.29 | 83.56 | 98.83 | 87.79 | 49.85 | 86.19 | 70.89 | 84.69 | 73.53 | 111 | 63.43 | Activity [20]: 70.1%
N#Cc1ccc(/C=C/c2nc3ccccc3nc2SCc2nc3ccccc3[nH]2)cc1 | 100 |  | 107 | 93.78 | 99.32 | 109 |  | 113 |  | 100 | 111 | 107 | 94.09 | 86.51 |  | 97.73 | 95.59 | 114 | 89.43 | 102 | 
Oc1ccc(/C=C/c2nc3ccccc3nc2SCc2nc3ccccc3[nH]2)cc1 | 97.81 | 93.68 | 95.56 | 77.99 | 100 | 96.11 |  | 117 | 107 | 93.62 | 76.71 | 106 | 94.78 | 85.96 |  | 99.18 | 99.33 | 96.67 | 86.49 | 85.51 | 
CN(C)c1ccc(/C=C/c2nc3ccccc3nc2SCc2nc3ccccc3[nH]2)cc1 | 96.81 |  | 102 | 81.79 | 92.21 | 102 |  | 102 |  | 103 | 107 | 99.96 | 100 | 84.96 |  | 79.22 | 105 | 93.83 | 101 | 100 | 
C(=C\c1nc2ccccc2nc1SCc1nc2ccccc2[nH]1)/c1ccccc1 | 82.87 |  | 79.81 | 89.58 | 76.83 | 88.93 |  | 67.72 | 2.71 | 76.83 | 77.88 | 97.82 | 74.42 | 58.6 |  | 83.8 | 65.68 | 96.13 |  | 47.73 | 
COc1ccc(OC)c(/C=C/c2nc3ccccc3nc2SCc2nc3ccccc3[nH]2)c1 | 98.9 |  | 104 | 81.59 | 99.58 | 105 |  | 111 |  | 94.36 | 83.86 | 87 | 88.34 | 60.33 |  | 81.4 | 87.18 | 103 | 80.4 | 77.53 | 
Oc1ccccc1/C=C/c1nc2ccccc2nc1SCc1nc2ccccc2[nH]1 | 76.6 |  | 83.34 | 41.14 | 70.2 | 81.04 |  | 81.1 | 25.22 | 69.99 | 56.68 | 87.29 | 78.21 | 49.71 |  | 44.46 | 79.35 | 74.29 | 83.56 | 63.38 | 
